Test [1] concerns the target T1, His-GST-TVMV-hRIPK1(1-324) (Homo sapiens, UniProt Q13546).
T1 construct: The coding region of human RIPK1(1-324) flanked by NdeI site at 5′ end; made in house; host or cells: Spodoptera frugiperda (Sf9) insect cells, baculovirus
T1 sequence (Q13546 1-324): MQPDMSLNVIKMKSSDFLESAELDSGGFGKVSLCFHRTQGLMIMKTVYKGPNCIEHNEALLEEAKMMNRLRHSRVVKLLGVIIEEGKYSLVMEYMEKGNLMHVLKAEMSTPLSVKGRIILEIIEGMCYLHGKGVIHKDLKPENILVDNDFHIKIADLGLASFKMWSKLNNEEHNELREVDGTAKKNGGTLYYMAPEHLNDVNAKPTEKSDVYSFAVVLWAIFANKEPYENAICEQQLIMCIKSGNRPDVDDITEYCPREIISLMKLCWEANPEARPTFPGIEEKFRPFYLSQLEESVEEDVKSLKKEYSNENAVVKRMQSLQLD
Kind of test: RIPK1 HTRF Binding Assay.

The subject of test [2] is MLKL phosphorylation in HT29-L23 human colorectal adenocarcinoma cells. The experiment in a line: MLKL Phosphorylation High-Content Assay. The test is classed as cell-based. As to conditions: Homo sapiens. Summed up: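 IC50 and Ymax obtained by 4-parameter logistic fitting of MLKL phosphorylation, measured as mean circ-ring average intensity ratio from high-content images. Staining used an anti-phospho-S358 MLKL antibody overnight at 4° C., following six-hour cell incubation at 37° C.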

The mark [3] stands for this setting: x marks IC50 class 20-200 nM, read-out: RIPK1 HTRF binding 20-200 nM.
Setting [4] is: x marks IC50 class 20-200 nM, read-out: pMLKL cell activity 20-200 nM.
The mark [5] stands for this setting: x marks IC50 class <20 nM, read-out: RIPK1 HTRF binding <20 nM.
The mark [6] stands for this setting: x marks IC50 class <20 nM, read-out: pMLKL cell activity <20 nM.
[7] abbreviates: x marks IC50 class >200 nM, read-out: pMLKL cell activity >200 nM.

Read-outs that look alike come from different tables or passages of the source.

Turning to `[2H]C([2H])([2H])[C@H](NC(=O)c1cc(-c2ccn3nc(N)nc3c2)cnc1OC)c1cc(C(F)(F)F)ccc1F` [Example 347, (S)-5-(2-amino-[1,2,4]triazolo[1,5-a]pyridin-7-yl)-N-(1-(2-fluoro-5-(trifluoromethyl)phenyl)ethyl-2,2,2-d3)-2-methoxynicotinamide], the IC50 in test [1] (setting [3]) and in test [2] (setting [4]) was 20 to 200 nM each time.

As for `COc1ncc(-c2ccn3nc(N)nc3c2)cc1C(=O)NCc1ccccc1COC(C)C` [Example 348, 5-(2-amino-[1,2,4]triazolo[1,5-a]pyridin-7-yl)-N-(2-(isopropoxymethyl)benzyl)-2-methoxynicotinamide], the IC50 is less than 20 nM in test [1] (setting [5]) and 20 to 200 nM in test [2] (setting [4]).

Consider `[2H]C([2H])(NC(=O)c1cc(-c2ccn3nc(N)nc3c2)cnc1OC)c1cc(C(F)(F)F)ccc1F` [Example 349, 5-(2-amino-[1,2,4]triazolo[1,5-a]pyridin-7-yl)-N-((2-fluoro-5-(trifluoromethyl)phenyl)methyl-d2)-2-methoxynicotinamide], for which the IC50 in test [1] (setting [3]) and in test [2] (setting [4]) was 20 to 200 nM in each case.

On to `COc1nc(C)c(-c2ccn3nc(N)nc3c2)cc1C(=O)NCc1cc(F)cc(F)c1OC1CCCOC1` (stereo not drawn) [Example 350, 5-(2-amino-[1,2,4]triazolo[1,5-a]pyridin-7-yl)-N-(3,5-difluoro-2-((tetrahydro-2H-pyran-3-yl)oxy)benzyl)-2-methoxy-6-methylnicotinamide], for which the IC50 in test [1] (setting [5]) and in test [2] (setting [6]) was less than 20 nM each time.

In the case of `COc1nc(C)c(-c2ccn3nc(N)nc3c2)cc1C(=O)NCc1cc(F)cc(F)c1O[C@H]1CCOC1` [Example 351, (S)-5-(2-amino-[1,2,4]triazolo[1,5-a]pyridin-7-yl)-N-(3,5-difluoro-2-((tetrahydrofuran-3-yl)oxy)benzyl)-2-methoxy-6-methylnicotinamide], the IC50 in test [1] (setting [5]) and in test [2] (setting [6]) was less than 20 nM throughout.

As for `COc1nc(C)c(-c2ccn3nc(N)nc3c2)cc1C(=O)NCc1cc(F)cc(F)c1OC1CCOC(C)C1` (stereo not drawn) [Example 352, 5-(2-amino-[1,2,4]triazolo[1,5-a]pyridin-7-yl)-N-(3,5-difluoro-2-((2-methyltetrahydro-2H-pyran-4-yl)oxy)benzyl)-2-methoxy-6-methylnicotinamide], the IC50 in test [1] (setting [5]) was less than 20 nM; in test [2] (setting [4]), 20 to 200 nM.

Regarding `COc1nc(C)c(-c2ccn3nc(N)nc3c2)cc1C(=O)NCc1cc(F)cc(F)c1OC1CC(C)OC(C)C1` (stereo not drawn) [Example 353, 5-(2-amino-[1,2,4]triazolo[1,5-a]pyridin-7-yl)-N-(2-((2,6-dimethyltetrahydro-2H-pyran-4-yl)oxy)-3,5-difluorobenzyl)-2-methoxy-6-methylnicotinamide], the IC50 was less than 20 nM in test [1] (setting [5]) and 20 to 200 nM in test [2] (setting [4]).

`COc1nc(C)c(-c2ccn3nc(N)nc3c2)cc1C(=O)NCc1cc(F)cc(F)c1O[C@@H]1CCOC1` [Example 354, (R)-5-(2-amino-[1,2,4]triazolo[1,5-a]pyridin-7-yl)-N-(3,5-difluoro-2-((tetrahydrofuran-3-yl)oxy)benzyl)-2-methoxy-6-methylnicotinamide]: the IC50 in test [1] (setting [5]) is less than 20 nM; in test [2] (setting [4]) it was 20 to 200 nM.

For `COc1nc(C)c(-c2ccn3nc(N)nc3c2)cc1C(=O)NCc1cccc(F)c1CN1CCOCC1` [Example 355, 5-(2-amino-[1,2,4]triazolo[1,5-a]pyridin-7-yl)-N-(3-fluoro-2-(morpholinomethyl)benzyl)-2-methoxy-6-methylnicotinamide], the IC50 is less than 20 nM in test [1] (setting [5]) and 20 to 200 nM in test [2] (setting [4]).

Turning to `COc1nc(C)c(-c2ccn3nc(N)nc3c2)cc1C(=O)NCc1cccc(F)c1OC1C[C@@H](C)O[C@@H](C)C1` (stereo partly drawn) [Example 356, 5-(2-amino-[1,2,4]triazolo[1,5-a]pyridin-7-yl)-N-(2-(((2R,6S)-2,6-dimethyltetrahydro-2H-pyran-4-yl)oxy)-3-fluorobenzyl)-2-methoxy-6-methylnicotinamide], the IC50 was 20 to 200 nM in test [1] (setting [3]), less than 20 nM in test [1] (setting [5]) and more than 200 nM in test [2] (setting [7]).

On to `COc1nc(C)c(-c2ccn3nc(N)nc3c2)cc1C(=O)NCc1ccccc1CN1CCCCC1` [Example 358, 5-(2-amino-[1,2,4]triazolo[1,5-a]pyridin-7-yl)-2-methoxy-6-methyl-N-(2-(piperidin-1-ylmethyl)benzyl)nicotinamide], for which the IC50 is 20 to 200 nM in test [1] (setting [3]) and more than 200 nM in test [2] (setting [7]).

As to `COc1nc(C)c(-c2ccn3nc(N)nc3c2)cc1C(=O)NCc1cc(F)cc(F)c1O[C@@H]1CCN(C)C1` [Example 359, (R)-5-(2-amino-[1,2,4]-triazolo[1,5-a]pyridin-7-yl)-N-(3,5-difluoro-2-((1-methylpyrrolidin-3-yl)oxy)benzyl)-2-methoxy-6-methylnicotinamide], the IC50 in test [1] (setting [3]) is 20 to 200 nM; in test [2] (setting [7]), more than 200 nM.

With `COc1ncc(-c2ccn3nc(N)nc3c2)cc1C(=O)NCc1cc(F)cc(F)c1O[C@H]1CCOC1` [Example 360, (S)-5-(2-amino-[1,2,4]triazolo[1,5-a]pyridin-7-yl)-N-(3,5-difluoro-2-((tetrahydrofuran-3-yl)oxy)benzyl)-2-methoxynicotinamide], the results for the IC50 in test [1] (setting [5]) and in test [2] (setting [4]) were less than 20 nM and 20 to 200 nM, respectively.

Turning to `COc1ncc(-c2ccn3nc(N)nc3c2)cc1C(=O)NCc1cc(F)cc(F)c1OC1CCOC(C)C1` (stereo not drawn) [Example 361, 5-(2-amino-[1,2,4]triazolo[1,5-a]pyridin-7-yl)-N-(3,5-difluoro-2-((2-methyltetrahydro-2H-pyran-4-yl)oxy)benzyl)-2-methoxynicotinamide], the IC50 in test [1] (setting [5]) is less than 20 nM; in test [2] (setting [4]), 20 to 200 nM.

With `COc1ncc(-c2ccn3nc(N)nc3c2)cc1C(=O)NCc1cc(F)cc(F)c1OC1CC(C)OC(C)C1` (stereo not drawn) [Example 362, 5-(2-amino-[1,2,4]triazolo[1,5-a]pyridin-7-yl)-N-(2-((2,6-dimethyltetrahydro-2H-pyran-4-yl)oxy)-3,5-difluorobenzyl)-2-methoxynicotinamide], the IC50 in test [1] (setting [3]) and in test [2] (setting [4]) was 20 to 200 nM each time.

`COc1ncc(-c2ccn3nc(N)nc3c2)cc1C(=O)NCc1cc(F)cc(F)c1O[C@@H]1CCOC1` [Example 363, (R)-5-(2-amino-[1,2,4]triazolo[1,5-a]pyridin-7-yl)-N-(3,5-difluoro-2-((tetrahydrofuran-3-yl)oxy)benzyl)-2-methoxynicotinamide]: the results for the IC50 in test [1] (setting [5]) and in test [2] (setting [4]) were less than 20 nM and 20 to 200 nM, respectively.

With `COc1ncc(-c2ccn3nc(N)nc3c2)cc1C(=O)NCc1cc(F)cc(F)c1OC1COC1` [Example 364, 5-(2-amino-[1,2,4]triazolo[1,5-a]pyridin-7-yl)-N-(3,5-difluoro-2-(oxetan-3-yloxy)benzyl)-2-methoxynicotinamide], the IC50 in test [1] (setting [5]) is less than 20 nM; in test [2] (setting [4]) it was 20 to 200 nM.

On to `COc1ncc(-c2ccn3nc(N)nc3c2)cc1C(=O)NCc1cccc(F)c1CN1CCOCC1` [Example 365, 5-(2-amino-[1,2,4]triazolo[1,5-a]pyridin-7-yl)-N-(3-fluoro-2-(morpholinomethyl)benzyl)-2-methoxynicotinamide], for which the IC50 is 20 to 200 nM in test [1] (setting [3]) and more than 200 nM in test [2] (setting [7]).

For the compound `COc1nc(C)c(-c2ccn3nc(N)nc3c2)cc1C(=O)NCc1ncccc1OCC(F)(F)F` [Example 366, 5-(2-amino-[1,2,4]triazolo[1,5-a]pyridin-7-yl)-2-methoxy-6-methyl-N-((3-(2,2,2-trifluoroethoxy)pyridin-2-yl)methyl)nicotinamide], the figures for the IC50 in test [1] (setting [5]) and in test [2] (setting [7]) were less than 20 nM and more than 200 nM, respectively.

The values are drawn from US10913738B2 (BRISTOL-MYERS SQUIBB COMPANY, priority 2017, dated 2021).
